Laboratory results: patent US8614187B2, “Peptides, compositions and uses thereof” (The Queen's University of Belfast, priority 2007, dated 2013)

Columns and labels:
[1] = tested on: rat tail arterial smooth muscle preparation; experiment: Rat tail artery smooth muscle bioassay (relaxation of phenylephrine-preconstricted artery); type: cell-based; conditions: for % Maximum Response (relaxation): rat tail artery, pre-constricted, at optimum concentration
Description: (A) Arterial Smooth Muscle:
Male albino Wistar rats (200-350 g) were euthanized by asphyxiation followed by cervical dislocation.
The tail artery was prepared as previously described (Hirst et al (1994) Br. J. Radiol. 67, 795-799). Incubation buffer was 95% O2/5% CO2 oxygenated Krebs' solution (NaCl 118 mM, KCl 4.7 mM, NaHCO3 25 mM, NaH2 PO4 1.15 mM, CaCl2 2.5 mM, MgCl2 1.1 mM, glucose 5.6 mM). Constriction or dilation of the arterial smooth muscle preparation was detected by an increase or decrease in pressure generated by water column displacement using pressure transducers connected to a MacLab System (AD Instruments Pty Ltd. Australia). […] Viability was determined using a range of bolus phenylephrine (5 μM-10 μM) exposures and the endothelial layer of the artery was removed by bubbling with oxygen for 10 s. Absence of the endothelial layer was confirmed by the lack of relaxation in response to a 30 min perfusion of acetylcholine (50 μM) after preconstriction with phenylephrine (10 μM).
(§1) For intestinal smooth muscle preparations, one cm thick rings of ileum were carefully placed onto the pins of a MacLab force transducer, one pin acting as a stationary fixed point while the second pin was free, permitting application of tension to the smooth muscle. The muscle rings were gradually exposed to 0.1 g increments in resting tension until the spontaneous contractions originated from a resting tension of 0.5 g. The contracting muscle preparations were allowed to stabilise for 25 min before the application of peptides. After perfusion of arterial preparations with 10 μM phenylephrine to obtain constriction plateaux, relative relaxation was recorded following applications of peptides in the range of 1×10^−5-1×10^−10 M. The intestinal smooth muscle ring preparations were exposed to peptide doses as above and relative changes in tension were recorded.

[2] = tested on: Human Microvascular Endothelial Cells (HMEC-1); experiment: Human microvessel endothelial cell wound scrape (migration) assay; type: cell-based
Description: (§2) • 1. […] Selective arterial smooth muscle dilators often have pro-angiogenic properties so QUB 698.8 was subjected to a range of appropriate bioassays to determine spectra of activity. • 4. In the human microvessel endothelial cell wound scrape assay, cells are grown on a glass slide to confluence, a standard-sized wound is made with a pipette tip and time taken to repair tear is measured. QUB 698.8 promoted wound closure 42% faster than non-treated controls at an optimum effective concentration of 10 nanomolar (Table 1—panel B and FIGS. 2a and b). • 5. Using an in vitro endothelial cell angiogenic tubule formation assay (Matrigel) QUB 698.8 induced 75% more tubules than time-matched controls at an optimum concentration of 1 nanomolar (Table 1—panel B and FIG. 3). • 6. […] (Table 1—panel B and FIG. 4). This may be indicative of a rapid role in cell cycle synchronization.

[3] = tested on: rat ileal smooth muscle ring preparation; experiment: Rat ileum smooth muscle ring bioassay (constriction of spontaneously contracting ileum); type: cell-based; conditions: for % Maximum Response (constriction): spontaneously contracting rat ileum, at optimum concentration
Excerpt: (B) Small Intestinal Smooth Muscle:
as §1

HMEC-1 [4] = experiment: In vitro endothelial cell angiogenic tubule formation assay (Matrigel); type: cell-based, human
Description: FIG. 3 illustrates the effect of the QUB 698.8 peptide on the ability of HMEC-1 to form tubules on matrigel matrices.
as §2

HMEC-1 [5] = experiment: Endothelial cell proliferation assay (MTT); type: cell-based, human
Description: FIG. 4 illustrates the effect of the QUB 698.8 peptide on the proliferation of HMEC-1 over 72 hours compared to a non-treatment control.
as §2

[6] = migration wound scrape, T = 7 dose response

With “DLPKIN [QUB 698.8, Asp-Leu-Pro-Lys-Ile-Asn]” the “Response of rat tail arterial smooth muscle preparation” value [1] was “dose-dependent relaxation”, the “Optimum concentration for maximal effect, arterial compared to ileal smooth muscle” value ([1]; arterial vs ileal smooth muscle) was “two orders of magnitude lower” and the EC50 ([1]; rat tail artery relaxation) was 7 nM. For the same substance, the “Optimum Concentration” value ([1]; rat tail artery relaxation) was 10^−7 M, the “Potency relative to bradykinin” value ([1]; rat tail artery relaxation) was “almost equipotent with bradykinin” and the “Potency relative to maximakinin” value ([1]; rat tail artery relaxation) was “more potent than maximakinin”. The “% Maximum Response (relaxation)” value [1] was 25% relaxation, the “Time to 50% wound closure” value ([2]; migration wound scrape, Other information) was “T = 3 hrs” and the EC50 [2, 6] was 0.339 nM. For the same substance, the “Optimum Concentration” value [2, 6] was 10^−8 M, the Peptide effect ([2]; migration wound scrape, T = 7 dose response: promoter of wound closure) was “Potent” and the Optimum effective concentration ([2]; wound closure) was 10 nM. The “Optimum Concentration” value ([2]; wound scrape total time to closure) was 10^−8 M, the “Time to complete wound closure” value ([2]; wound scrape total time to closure, 10^−8 M) was 16 h and the Peptide effect ([2]; wound scrape total time to closure: stimulator of initial endothelial migration) was “Potent”. For the same substance, the “Response of rat ileal smooth muscle ring preparation” value [3] was “dose-dependent constriction”, the EC50 ([3]; rat ileum constriction) was 1440 nM and the “Optimum Concentration” value ([3]; rat ileum constriction) was 10^−5 M. The “Potency relative to bradykinin and maximakinin” value ([3]; rat ileum constriction) was “less potent than both bradykinin and maximakinin”, the “% Maximum Response (constriction)” value [3] was 52% Constriction and the Peptide effect (HMEC-1 [4]; stimulator of endothelial tubule formation) was “Potent”. For the same substance, the EC50 (HMEC-1 [4]; tubule formation) was 0.0526 nM, the “Optimum Concentration” value (HMEC-1 [4]; tubule formation) was 10^−9 M and the Optimum concentration (HMEC-1 [4]; tubule formation) was 1 nM. For the same substance, the “Endothelial cell number compared to non-treated controls after 48 h” value (HMEC-1 [5]; after 48 h) was “no significant differences”, the “Other information: proliferation after 24 hrs” value (HMEC-1 [5]; beyond 24 hrs) was “No further” and the EC50 (HMEC-1 [5]; proliferation) was 0.0659 nM. The “Optimum Concentration” value (HMEC-1 [5]; proliferation) was 10^−8 M and the Peptide effect (HMEC-1 [5]; stimulator of endothelial cell proliferation) was “Potent”.
In the case of “DLPKINRKGPRPPGFSPFR [Mx, Asp-Leu-Pro-Lys-Ile-Asn-Arg-Lys-Gly-Pro-Arg-Pro-Pro-Gly-Phe-Ser-Pro-Phe-Arg, reference compound]”, the EC50 ([1]; rat tail artery relaxation) is reported as 6.18 nM, the “Optimum Concentration” value ([1]; rat tail artery relaxation) is reported as 10^−7 M and the “% Maximum Response (relaxation)” value [1] is reported as 30% relaxation. For the same substance, the EC50 ([3]; rat ileum constriction) was 534 nM, the “Optimum Concentration” value ([3]; rat ileum constriction) was 10^−6 M and the “% Maximum Response (constriction)” value [3] was 52% Constriction.
